Reference: US20130345215A1, “PYRAZOLOPYRIMIDONE AND PYRAZOLOPYRIDONE INHIBITORS OF TANKYRASE” (Genentech, Inc., priority 2012, published 2013)
pIC50: −log10 of the molar value.

Test system: Wnt stimulated TCF transcriptional activity, HEK293-TS 112 TCF reporter cell line
Assay: Tankyrase 1 Assay (Example 119): Wnt3A-stimulated TOPbrite TCF luciferase reporter
Type: cell-based
Conditions: Compounds I-59 to I-144, procedure in Example 119 (0.5 ug/mL Wnt3A, 16 hours); read-out: TNKS1 (IC50)
Experimental: Inhibition of the Wnt stimulated TCF transcriptional activity by tankyrase inhibitors was determined utilizing a HEK293-TS 112 TCF reporter cell line. A Wnt-responsive luciferase reporter named TOPbrite was constructed by cloning the enhancer element of Super8xTOPFlash containing eight TCF/LEF binding sites into the pGL4.28 vector (Promega) upstream of the minimal promoter element, and selecting for hygromycin B resistance (50 μg/ml). Cells were seeded into 384-well plates in the presence of 0.5 ug/mL of Wnt3A at a density of 20,000 cells per well in 25 ul of F:12 DMEM media supplemented with 10% FBS and 2 mM Glutamax. Cells seeded without the addition of Wnt3A were used as background signal. Compounds of various concentrations were added to cells and incubated at 37 degrees with 5% CO2 for 16 hours. The assay was terminated with the addition of Promega Dual Glo kit per manufacturer's instructions. A ratio of TOPbrite Firefly Luciferase and SV40 Renillla Luciferase was calculated and the background from the neutral wells was subtracted yielding the final normalized measurement of TCF transcriptional activity. Compound IC50s were determined by four-parameter curve fitting using GeneData software.

Row | Compound | pIC50
1 | CN1CCN(Cc2cc(F)c(N3CCN(c4nc5c(cnn5C)c(=O)[nH]4)CC3)c(F)c2)CC1 [Compound I-60, 6-[4-[2 6-difluoro-4-[(4-methylpiperazin-1-yl)methyl]phenyl]piperazin-1-yl]-1-methyl-5H-pyrazolo[3 4-d]pyrimidin-4-one] | 8.42
2 | COCCO[C@H]1CC[C@@H](N2CCN(c3nc4c(cnn4C)c(=O)[nH]3)CC2)CC1 [Compound I-136, 6-[4-[4-(2-methoxyethoxy)cyclohexyl]piperazin-1-yl]-1-methyl-5H-pyrazolo[3 4-d]pyrimidin-4-one] | 6.33
3 | Cn1ncc2c(=O)[nH]c(N3CCN(c4c(F)cc(C(O)CO)cc4F)CC3)nc21 (stereo not shown) [Compound I-63, 6-[4-[4-(1 2-dihydroxyethyl)-2 6-difluoro-phenyl]piperazin-1-yl]-1-methyl-5H-pyrazolo[3 4-d]pyrimidin-4-one] | 8.28
4 | Cn1ncc2c(=O)[nH]c(N3CCN(c4c(F)cc(CN5CCOCC5)cc4F)CC3)nc21 [Compound I-67, 6-[4-[2 6-difluoro-4-(morpholinomethyl)phenyl]piperazin-1-yl]-1-methyl-5H-pyrazolo[3 4-d]pyrimidin-4-one] | 8.16
5 | Cn1ncc2c(=O)[nH]c(-c3ccc(S(=O)(=O)CC4CCCCC4)cc3)nc21 [Compound I-108, 6-[4-(cyclohexylmethylsulfonyl)phenyl]-1-methyl-5H-pyrazolo[3 4-d]pyrimidin-4-one] | 7.16
6 | Cn1ncc2c(=O)[nH]c(N3CCC(C)(c4ccn(CCO)n4)CC3)nc21 [Compound I-89, 6-[4-[1-(2-hydroxyethyl)pyrazol-3-yl]-4-methyl-1-piperidyl]-1-methyl-5H-pyrazolo[3 4-d]pyrimidin-4-one] | 7.66
7 | Cn1ncc2c(=O)[nH]c(N3CCN(c4c(F)cc(OCC(O)CO)cc4F)CC3)nc21 (stereo not shown) [Compound I-68, 6-[4-[4-(2 3-dihydroxypropoxy)-2 6-difluoro-phenyl]piperazin-1-yl]-1-methyl-5H-pyrazolo[3 4-d]pyrimidin-4-one] | 8.15
8 | Cn1ncc2c(=O)[nH]c(N3CCN(C4COC4)CC3)nc21 [Compound I-144, 1-methyl-6-[4-(oxetan-3-yl)piperazin-1-yl]-5H-pyrazolo[3 4-d]pyrimidin-4-one] | 6.08
9 | 6-[4-(2-fluorophenyl)-1- piperidyl]-1-methyl-5H- pyrazolo[3 4-d]pyrimidin- 4-one [Compound I-88] | 7.71
10 | Cn1ncc2c(=O)[nH]c(N3CCN(c4c(F)cc(OCCOP(=O)(O)O)cc4F)CC3)nc21 [Compound I-75, 2-[3 5-difluoro-4-[4-(1-methyl-4-oxo-5H-pyrazolo[3 4-d]pyrimidin-6-yl)piperazin-1-yl]phenoxy]ethyl dihydrogen phosphate] | 8.02
11 | CC(O)c1cc(F)c(N2CCN(c3nc4c(cnn4C)c(=O)[nH]3)CC2)c(F)c1 (stereo not shown) [Compound I-69, 6-[4-[2 6-difluoro-4-(1-hydroxyethyl)phenyl]piperazin-1-yl]-1-methyl-5H-pyrazolo[3 4-d]pyrimidin-4-one] | 8.11
12 | Cn1nccc1CN1CCN(c2nc3c(cnn3C)c(=O)[nH]2)CC1 [Compound I-132, 1-methyl-6-[4-((2-methylpyrazol-3-yl)methyl]piperazin-1-yl]-5H-pyrazolo[3 4-d]pyrimidin-4-one] | 6.48
13 | Cn1ncc2c(=O)[nH]c(N3CCC(c4ccccn4)CC3)nc21 [Compound I-111, 1-methyl-6-[4-(2-pyridyl)-1-piperidyl]-5H-pyrazolo[3 4-d]pyrimidin-4-one] | 7.08
14 | Cn1ncc2c(=O)[nH]c(N3CCC(c4[nH]ncc4S(C)(=O)=O)CC3)nc21 [Compound I-81, 1-methyl-6-[4-(4-methylsulfonyl-1H-pyrazol-5-yl)-1-piperidyl]-5H-pyrazolo[3 4-d]pyrimidin-4-one] | 7.84
15 | Cn1ncc2c(=O)[nH]c(N3CCC(Cc4cccnc4)C3)nc21 (stereo not shown) [Compound I-137, 1-methyl-6-[3-(3-pyridylmethyl)pyrrolidin-1-yl]-5H-pyrazolo[3 4-d]pyrimidin-4-one] | 6.31
16 | Cn1ncc2c(=O)[nH]c(N3CCN(C4CCN(C(=O)OC(C)(C)C)CC4)CC3)nc21 [Compound I-131, tert-butyl 4-[4-(1-methyl-4-oxo-5H-pyrazolo[3 4-d]pyrimidin-6-yl)piperazin-1-yl]piperidine-1-carboxylate] | 6.50
17 | Cn1ncc2c(=O)[nH]c(N3CCC(c4ccccc4)CC3)nc21 [Compound I-101, 1-methyl-6-(4-phenyl-1-piperidyl)-5H-pyrazolo[3 4-d]pyrimidin-4-one] | 7.34

Row | Compound | pIC50
18 | COCCOc1cc(F)c(N2CCN(c3nc4c(cnn4C4CCOCC4)c(=O)[nH]3)CC2)c(F)c1 [Compound I-123, 6-[4-[2 6-difluoro-4-(2-methoxyethoxy)phenyl]piperazin-1-yl]-1-tetrahydropyran-4-yl-5H-pyrazolo[3 4-d]pyrimidin-4-one] | 6.77
19 | Cn1ncc2c(=O)[nH]c(N3CCC(n4cccn4)CC3)nc21 [Compound I-112, 1-methyl-6-(4-pyrazol-1-yl-1-piperidyl)-5H-pyrazolo[3 4-d]pyrimidin-4-one] | 7.05
20 | C[C@H](N)C(=O)OCCOc1cc(F)c(N2CCN(c3nc4c(cnn4C)c(=O)[nH]3)CC2)c(F)c1 [Compound I-59, 2-[3 5-difluoro-4-[4-(1-methyl-4-oxo-5H-pyrazolo[3 4-d]pyrimidin-6-yl)piperazin-1-yl]phenoxy]ethyl (2S)-2-aminopropanoate] | 8.43
21 | Cn1ncc2c(=O)[nH]c(N3CCC(S(C)(=O)=O)CC3)nc21 [Compound I-141, 1-methyl-6-(4-methylsulfonyl-1-piperidyl)-5H-pyrazolo[3 4-d]pyrimidin-4-one] | 6.19
22 | O=c1[nH]c(N2CCN(c3c(F)cc(F)cc3F)CC2)nc2[nH]ncc12 [Compound I-104, 6-[4-(2 4 6-trifluorophenyl)piperazin-1-yl]-1 5-dihydropyrazolo[3 4-d]pyrimidin-4-one] | 7.26
23 | Cn1ncc2c(=O)[nH]c(N3CCC(O)(c4ccc(F)cc4)CC3)nc21 [Compound I-93, 6-[4-(4-fluorophenyl)-4-hydroxy-1-piperidyl]-1-methyl-5H-pyrazolo[3 4-d]pyrimidin-4-one] | 7.61
24 | Cn1ncc2c(=O)[nH]c(N3CCN(c4c(F)cc(O)cc4F)CC3)nc21 [Compound I-73, 6-[4-(2 6-difluoro-4-hydroxy-phenyl)piperazin-1-yl]-1-methyl-5H-pyrazolo[3 4-d]pyrimidin-4-one] | 8.06
25 | Cn1ncc2c(=O)[nH]c(N3CCN(c4c(F)cc(OCCN5CCOCC5)cc4F)CC3)nc21 [Compound I-74, 6-[4-[2 6-difluoro-4-(2-morpholinoethoxy)phenyl]piperazin-1-yl]-1-methyl-5H-pyrazolo[3 4-d]pyrimidin-4-one] | 8.05
26 | Cc1cc(CN2CCN(c3nc4c(cnn4C)c(=O)[nH]3)CC2)no1 [Compound I-140, 1-methyl-6-[4-[(5-methylisoxazol-3-yl)methyl]piperazin-1-yl]-5H-pyrazolo[3 4-d]pyrimidin-4-one] | 6.25
27 | Cn1ncc2c(=O)[nH]c(N3CCC(c4n[nH]c5ncccc45)CC3)nc21 [Compound I-97, 1-methyl-6-[4-(1H-pyrazolo[3 4-b]pyridin-3-yl)-1-piperidyl]-5H-pyrazolo[3 4-d]pyrimidin-4-one] | 7.50
28 | Cn1ncc2c(=O)[nH]c(N3CCN(c4c(F)cc(OC5CC[S+]([O-])CC5)cc4F)CC3)nc21 (stereo not shown) [Compound I-87, 6-[4-[2 6-difluoro-4-(1-oxothian-4-yl)oxy-phenyl]piperazin-1-yl]-1-methyl-5H-pyrazolo[3 4-d]pyrimidin-4-one] | 7.73
29 | Cn1ncc2c(=O)[nH]c(N3CCN(S(C)(=O)=O)CC3)nc21 [Compound I-142, 1-methyl-6-(4-methylsulfonylpiperazin-1-yl)-5H-pyrazolo[3 4-d]pyrimidin-4-one] | 6.13
30 | Cn1ncc2c(=O)[nH]c(N3CCN(c4c(F)cc(OC5COC5)cc4F)CC3)nc21 [Compound I-85, 6-[4-[2 6-difluoro-4-(oxetan-3-yloxy)phenyl]piperazin-1-yl]-1-methyl-5H-pyrazolo[3 4-d]pyrimidin-4-one] | 7.77
31 | COCCOc1cc(F)c(N2CCN(c3nc4c(cnn4CC(C)(C)O)c(=O)[nH]3)CC2)c(F)c1 [Compound I-143, 6-[4-[2 6-difluoro-4-(2-methoxyethoxy)phenyl]piperazin-1-yl]-1-(2-hydroxy-2-methyl-propyl)-5H-pyrazolo[3 4-d]pyrimidin-4-one] | 6.10
32 | Cc1noc(C2(C)CCN(c3nc4c(cnn4C)c(=O)[nH]3)CC2)n1 [Compound I-91, 1-methyl-6-[4-methyl-4-(3-methyl-1 2 4-oxadiazol-5-yl)-1-piperidyl]-5H-pyrazolo[3 4-d]pyrimidin-4-one] | 7.62
33 | Cn1cc(CN2CCN(c3nc4c(cnn4C)c(=O)[nH]3)CC2)cn1 [Compound I-134, 1-methyl-6-[4-[(1-methylpyrazol-4-yl)methyl]piperazin-1-yl]-5H-pyrazolo[3 4-d]pyrimidin-4-one] | 6.47
34 | Cn1ncc2c(=O)[nH]c(N3CCN(c4c(F)cc(OCCN5CCCCC5)cc4F)CC3)nc21 [Compound I-62, 6-{4-[2,6-Difluoro-4-(2-piperidin-1-yl-ethoxy)-phenyl]-piperazin-1-yl}-1-methyl-1,5-dihydro-pyrazolo[3,4-d]pyrimidin-4-one] | 8.30
